Data from US10813936B2, “Crystalline form of (S)-N-(5-((R)-2-(2,5-difluorophenyl)-pyrrolidin-1-YL)-pyrazolo[1,5-A]pyrimidin-3-YL)-3-hydroxypyrrolidine-1-carboxamide hydrogen sulfate” (Array BioPharma, Inc., priority 2014, dated 2020).
Where a name gives a salt, the structure may show the parent alone.

Legend:
[1] = Accelerated stability, 40° C./75% RH, five weeks, LDPE bag; assay type: physicochemical; settings: for API chemical purity over the course of the stability study: five weeks; for Assay / Chiral Potency / Total Impurities: HPLC
Procedure: Upon removal from the chamber, the samples were physically characterized by appearance, KF, TGA, DSC, XRD and PLM. The samples were also analyzed by HPLC for chromatographic purity, chiral integrity and potency. Where applicable, the data presented in the stability portion also includes the original T=0 data for comparison purposes. The data can be seen in Tables 25-29 and FIGS. 40-44.

[2] = Dynamic vapor sorption (DVS-1 system); assay type: physicochemical; settings: for DVS (outcome): form after or during DVS, HCl at 50-60% RH
Procedure: For the DVS measurement a sample of crystalline form (I—HS) was cycled through changing humidity conditions to determine its hygroscopicity. The sample was analyzed using a Surface Measurement System DVS-1 Dynamic Vapor Sorption System. […] Data was collected in 1 minute intervals. Nitrogen was used as the carrier gas. […] After completion of the sorption cycle, the sample was dried using the same procedure, but all the way down to 0% RH and finally taken back to the starting point of 20% RH. The weight change during the sorption/desorption cycles were plotted, allowing for the hygroscopic nature of the sample to be determined.

[3] = Stability on aluminum slide at 40° Celsius/75% RH; assay type: physicochemical; settings: time: I-HS 10 days, HCl 1 hour, HBr 2 weeks, mesylate overnight
[4] = tested on: MPRIP-TRKA oncoprotein and ERK1/2; assay: Immunoblot of phosphorylation in CUTO-3F cells; assay type: cell-based, human; settings: low doses, 2 hours
From the text: (§1) Briefly, cells were lysed in RIPA buffer with Halt Protease and Phosphatase Inhibitor Cocktail (Thermo Scientific) and diluted in loading buffer (LI-COR Biosciences). The membranes were scanned and analyzed using the Odyssey Imaging System and software (LI-COR). The following antibodies were used from Cell Signaling: pTRK Y490 (rabbit polyclonal, #9141), pERK1/2 XP T202/Y204 (#9101), total ERK1/2, pAKT 5473 (rabbit mAb, #4060), and total AKT mouse clone D3A7 (#2920). TRK (C-14) rabbit polyclonal antibody was purchased from Santa Cruz Biotechnology. GAPDH (MAB374) and pTYR (4G10) are from Millipore.

[5] = tested on: TPM3-TRKA, pAKT, and pERK1/2; assay: Immunoblot of phosphorylation in KM12 cells; assay type: cell-based, human; settings: low doses, 2 hours
From the text: as §1

[6] = tested on: TEL-TRKC oncoprotein, pAKT, and pERK1/2; assay: Immunoblot of phosphorylation in MO-91 cells; assay type: cell-based, human; settings: low doses, 2 hours
From the text: FIG. 13 is an immunoblot showing that the crystalline form (I—HS)inhibits TEL-TRKC kinase and ERK1/2 and AKT activity in MO-91 cells.
as §1

TRKA-SHC1 complexes = assay: TRK-SHC1 proximity ligation assay in CUTO-3 cells; assay type: cell-based, human; settings: 100 nM, 2 hours, versus DMSO
Procedure: PLAs are unique because they can detect functional signaling complexes between a kinase and one of its adaptors in situ. In this assay, TRKA complexed with its preferred adaptor, SHC1, which binds to Y496 in the TRKA kinase domain, was measured (FIG. 17).
Cells were seeded onto glass coverslips (in a 48 well plate) or chamber slides at 25-75 k cells/well. Cells were treated with the indicated doses and times then fixed for 15 minutes by shaking at room temperature in 4% paraformaldehyde. The cells were rinsed twice in PBS, and then the Duolink® in situ PLA® kit from SigmaAldrich in mouse/rabbit (Red) was used according to the manufacturer's protocol (catalog # DUO92101). The antibody concentrations were optimized using immunofluorescence prior to PLA experiments. […] Additionally, samples were treated with 300 mM glycine for 15 minutes prior to the blocking step, otherwise the assay was performed according to the manufacturer's protocol. The cells were mounted using Prolong® gold anti-fade reagent (with DAPI) and cured overnight prior to imaging. The images were either taken on a Nikon standard inverted fluorescent microscope at 40×, or on the 31 Marianas spinning disc confocal in the University of Colorado Anschutz Medical Campus Advance Light Microscopy Core at 40× or 100×. […]

[7] = tested on: xenograph (human) tumor derived from CUTO-3F cell line; assay: Xenograft tumor growth, CUTO-3F; assay type: in vivo, mice; settings: CUTO-3F xenograft, oral daily 60 mg/kg or 200 mg/kg
From the text: (§2) The three different cancer cell lines, the CUTO-3F cell line, the KM12 cell line, and the MO-91 cell line, each express a different Trk gene fusion. […] Following implantation of one of these three different xenograph (human) tumors in mice, the change in the volume of each tumor was monitored.

[8] = tested on: xenograph (human) tumor derived from KM12 cell line; assay: Xenograft tumor growth, KM12; assay type: in vivo, mice; settings: oral daily 60 mg/kg or 200 mg/kg
From the text: as §2

[9] = tested on: xenograph (human) tumor derived from MO-91 cell line; assay: Xenograft tumor growth, MO-91; assay type: in vivo, mice; settings: MO-91 xenograft, oral daily 60 mg/kg or 200 mg/kg
From the text: as §2

[10] = tested on: undifferentiated sarcoma with LMNA-NTRK1 fusion; assay: Phase 1 trial case: patient with undifferentiated sarcoma; assay type: in vivo, human; settings: one patient
From the text: The patient started cycle 1 day 1 three days later. The patient was seen weekly for pharmacokinetic and safety analysis.

[11] = tested on: solid tumors with NTRK-fusions; assay: Phase 1 study: response (RECIST 1.1) in NTRK-fusion patients; assay type: in vivo, human; settings: 100 or 150 mg BID
Procedure: Three of the 23 patients harbored NTRK-fusions and were treated at either 100 or 150 mg BID.

[12] = Dynamic vapor sorption (IGAsorp analyzer, 25° C.); assay type: physicochemical
Procedure: • 1. The hygroscopicity was studied at 25° C. using an IGAsorp analyzer. • 2. About 15 mg of sample was placed in a tared mesh sample holder at an initial ambient room humidity setting of ˜35%. • 3. A total wet/dry nitrogen flow rate of 250 cc/min is used throughout the study. • 4. […] The maximum time allowed at any one humidity set point was 120 min. The sample was maintained under dry N2 after the cycle was completed. Percent weight gain was calculated based on the dry weight basis. Part One: Physical Characterization of Crystalline Form (I—HS)

[13] = Phase 1 dose escalation study: safety and pharmacokinetics
Procedure: Response is measured by RECIST Criteria, version 1.1. Serum is collected for pharmacokinetic analysis on Cycle 1 Day 1 and Day 8. Safety information is collected on all patients and the definition of dose-limiting toxicity applies to adverse events regardless of relationship to investigational product.

## O=C(Nc1cnn2ccc(N3CCC[C@@H]3c3cc(F)ccc3F)nc12)N1CC[C@H](O)C1.O=S(=O)(O)O [AM(HS)1, (S)—N-(5-((R)-2-(2,5-difluorophenyl)-pyrrolidin-1-yl)-pyrazolo[1,5-a]pyrimidin-3-yl)-3-hydroxypyrrolidine-1-carboxamide hydrogen sulfate]
[1]; 40 C/75% RH, 5 wks.
  Peak Area Percent, RRT 0.793: 0.00 Peak Area Percent
  Peak Area Percent, RRT 0.863: 1.04 Peak Area Percent
  Peak Area Percent, RRT 0.981: 0.12 Peak Area Percent
  Peak Area Percent, RRT 1.000: 98.83 Peak Area Percent
  Peak Area Percent, RRT 1.535: 0.00 Peak Area Percent
[1]; 40° C./75% RH, 5 wks.
  KF: 0.56 w/w %
  Assay: 80.3%
  Chiral Potency: 99.6%
  Total Impurities: 1.16%
[1]; 40° C./75% RH
  API chemical purity over the course of the stability study: did not change significantly
[1]; time point 0 wks.
  Assay: 79.5%
  Chiral Potency: 99.6%
  Total Impurities: 1.10%
  Appearance: Yellow Powder free
  KF: 2.00 w/w %
  Peak Area Percent, RRT 0.793: 0.00 Peak Area Percent
  Peak Area Percent, RRT 0.863: 0.98 Peak Area Percent
  Peak Area Percent, RRT 0.981: 0.12 Peak Area Percent
  Peak Area Percent, RRT 1.000: 98.89 Peak Area Percent
  Peak Area Percent, RRT 1.535: 0.00 Peak Area Percent

## O=C(Nc1cnn2ccc(N3CCC[C@@H]3c3cc(F)ccc3F)nc12)N1CC[C@H](O)C1.O=S(=O)(O)O [AM(HS), (S)—N-(5-((R)-2-(2,5-difluorophenyl)-pyrrolidin-1-yl)-pyrazolo[1,5-a]pyrimidin-3-yl)-3-hydroxypyrrolidine-1-carboxamide hydrogen sulfate]
[1]
  behaviour when exposed to humidity: deliquesced

## Br.O=C(Nc1cnn2ccc(N3CCC[C@@H]3c3cc(F)ccc3F)nc12)N1CC[C@H](O)C1 [HBr, (S)—N-(5-((R)-2-(2,5-difluorophenyl)pyrrolidin-1-yl)pyrazolo[1,5-a]pyrimidin-3-yl)-3-hydroxypyrrolidine-1-carboxamide hydrobromide]
[2]
  DVS (outcome): (deliquesced)
[3]
  Stability at 40° Celsius/75% RH (aluminum slide): amorphous

## Cl.O=C(Nc1cnn2ccc(N3CCC[C@@H]3c3cc(F)ccc3F)nc12)N1CC[C@H](O)C1 [HCl, (S)—N-(5-((R)-2-(2,5-difluorophenyl)pyrrolidin-1-yl)pyrazolo[1,5-a]pyrimidin-3-yl)-3-hydroxypyrrolidine-1-carboxamide hydrochloride]
[2]
  DVS (outcome): form change
[3]
  Stability at 40° Celsius/75% RH (aluminum slide): form change

## CS(=O)(=O)O.O=C(Nc1cnn2ccc(N3CCC[C@@H]3c3cc(F)ccc3F)nc12)N1CC[C@H](O)C1 [Mesylate, (S)—N-(5-((R)-2-(2,5-difluorophenyl)pyrrolidin-1-yl)pyrazolo[1,5-a]pyrimidin-3-yl)-3-hydroxypyrrolidine-1-carboxamide methanesulfonate]
[2]
  DVS (outcome): (crystalline)
[3]
  Stability at 40° Celsius/75% RH (aluminum slide): Deliquesced

## O=C(Nc1cnn2ccc(N3CCC[C@@H]3c3cc(F)ccc3F)nc12)N1CC[C@H](O)C1 [crystalline form (I—HS), (S)—N-(5-((R)-2-(2,5-difluorophenyl)-pyrrolidin-1-yl)-pyrazolo[1,5-a]pyrimidin-3-yl)-3-hydroxypyrrolidine-1-carboxamide hydrogen sulfate]
[4]
  inhibition of phosphorylation of the MPRIP-TRKA oncoprotein and ERK1/2: inhibition
[5]
  inhibition of phosphorylation of TPM3-TRKA, pAKT, and pERK1/2: inhibition
[6]
  inhibition of phosphorylation of the TEL-TRKC oncoprotein, pAKT, and pERK1/2: inhibition
TRKA-SHC1 complexes
  effect on TRKA-SHC1 complexes (PLA): disruption of TRKA-SHC1 complexes
[7]
  growth of xenograft tumor: effectively halt the growth, or decrease the rate of growth
[8]
  growth of xenograft tumor: effectively halt the growth, or decrease the rate of growth
[9]
  growth of xenograft tumor: effectively halt the growth, or decrease the rate of growth
[10]; 100 mg twice daily, CT prior to cycle 2 and cycle 3
  response by RECIST 1.1: partial response
[10]; 4-week period of cycle 1
  drug-related adverse events: No drug-related adverse events
[10]; after four months of dosing
  adverse events attributed to the drug: did not have any adverse events
[10]; on room air, after treatment (baseline 90% with 5 L oxygen)
  oxygen saturation: 97%
[10]; over cycle 1
  CA125 levels: normalized
[11]
  response of the three NTRK-fusion patients: partial response
[2]
  hygroscopicity (DVS): non-hygroscopic
  DVS (outcome): RH No change
[2]; between 0% and 90% RH
  increase in mass during the sorption cycle: about 1.7%
[3]
  Stability at 40° Celsius/75% RH (aluminum slide): No form change
[12]
  hygroscopicity (DVS): not hygroscopic
[1]; 40 C/75% RH, 5 wks.
  Peak Area Percent, RRT 0.793: 0.07 Peak Area Percent
  Peak Area Percent, RRT 0.863: 0.00 Peak Area Percent
  Peak Area Percent, RRT 0.981: 0.00 Peak Area Percent
  Peak Area Percent, RRT 1.000: 99.93 Peak Area Percent
  Peak Area Percent, RRT 1.535: 0.00 Peak Area Percent
[1]; 40° C./75% RH, 5 wks.
  Appearance: Orange Powder free
  KF: 0.21 w/w %
  Assay: 79.6%
  Chiral Potency: 99.6%
  Total Impurities: 0.07%
[1]; 40° C./75% RH
  API chemical purity over the course of the stability study: did not change significantly
[1]; time point 0 wks.
  Assay: 79.4%
  Chiral Potency: 99.6%
  Total Impurities: 0.14%
  Appearance: Orange Powder free
  KF: 0.28 w/w %
  Peak Area Percent, RRT 0.793: 0.07 Peak Area Percent
  Peak Area Percent, RRT 0.863: 0.00 Peak Area Percent
  Peak Area Percent, RRT 0.981: 0.00 Peak Area Percent
  Peak Area Percent, RRT 1.000: 99.86 Peak Area Percent
  Peak Area Percent, RRT 1.535: 0.07 Peak Area Percent
[13]; 23 patients
  adverse event: Grade 1 and 2 anemia: 22%
  adverse event: Grade 1 and 2 dizziness: 26%
  adverse event: Grade 1 and 2 fatigue: 35%
[13]; elevated AST grade 3 (150 mg BID), delirium grade 3 unrelated (100 mg BID)
  patients with dose limiting toxicities: Two
